Values of other authors as cited in publication PMC11046985 (Neuro-Oncology Advances, 2024).

How the values were obtained:
[1] = design: method as in earlier work; settings: erlotinib increased from 150 to 600 mg; cited from earlier work
[2] = daily administration, patients with brain tumors; cited from earlier work

C#Cc1cccc(Nc2ncnc3cc(OCCOC)c(OCCOC)cc23)c1 [erlotinib]
Increase of area under the curve estimation in the CSF [1]: 24% | Increase of area under the curve estimation in the plasma [1]: 2% | Therapeutic levels in cerebrospinal fluid (CSF) [2]: did not appear to reach therapeutic levels

COc1cc2ncnc(Nc3ccc(F)c(Cl)c3)c2cc1OCCCN1CCOCC1 [gefitinib]
Therapeutic levels in cerebrospinal fluid (CSF) [2]: did not appear to reach therapeutic levels
